The source of these data is patent publication EP0380897B1, “Pharmaceutical agents for female sterilization by way of intrauterine administration, and their therapeutical use” (priority 1989, dated 1990).

Data set [1] concerns trompes humaines. The experiment in a line: Clinical follow-up of pregnancies after non-surgical female sterilization with intrauterine quinacrine tablets, alone or with an anti-inflammatory adjuvant. Conditions: for taux de grossesse: quinacrine alone. Format: in vivo, femmes. The protocol: (§1) Ce symptôme est survenu chez 6 % des sujets dans les deux insertions ou seulement dans une seule. • b) un phénomène de fièvre de 38°C à 39,5°C apparaissant le surlendemain du jour d'insertion et durant de 1 à 4 jours, sans relation avec le mal de tête. Les deux symptômes sont corrélés chez seulement quelques sujets. La fièvre est apparue chez 5 % des cas (parfois lors de la première insertion et parfois lors de la seconde). Les autres complications ont été semblables à celles décrites dans l'article publié précédemment J. Zipper et al. Adv. in Contraception 3(1987)255. A la fin de l'année de suivi, le taux de grossesse a été de 3,0 pour 100 femmes et par an.
(§2) Un autre groupe utilisant la quinacrine seule a été constitué, qui a subi deux insertions intra-utérines avec des comprimés à 180 mg. Les insertions ont été séparées par un cycle menstruel - 190 sujets sont entrés dans cette étude. […] Chez un petit nombre de sujets seulement les deux symptômes ont été présents simultanément. La fièvre est apparue dans 3% des cas (pas nécessairement lors des deux insertions). Ce groupe a manifesté un taux de grossesse de 3 pour 100 femmes, et par an à la fin de la première année du suivi. Les deux groupes quinacrine (250 et 180 mg) ont été considéré comme des témoins pour les autres groupes qui ont reçu un anti-inflammatoire, un antipyrétique et des substances anti-prostagrandines.
(§3) 4 mg de Bétaméthasone et 4 mg de Dexaméthasone ont été employé dans des groupes distincts de sujets. • 1 - 4 mg de Betaméthasone intra-musculaire Ce groupe incluait 90 sujets - 4 mg de Bethaméthasone ont été injectés lorsque le comprimé de quinacrine à 250 mg a été inséré. Ce procédé a été utilisé à nouveau avec le second comprimé (comprimé à 250 mg ayant un temps de dissolution de 100 mn). […] Les sujets ont achevé une année de suivi et ont représenté 1220 mois. […] Ce groupe incluait 65 sujets. […] Ces sujets ont effectué au total 830 mois de suivi. […] Ceci nous a conduit à faire des investigations sur la potentialisation possible des effets occlusifs de la quinacrine chez le rat dû à la betaméthasone. Cette méthode expérimentale est celle décrite pour d'autres substances (ref. Agent pharmacologique qui potentialisent ou inhibent l'action occlusivante de la quinacrine, dans le tube du lapin et dans l'utérus de rat cf J. ZIPPER-S.INSUNSA Female Stérilization - pronostic pour des techniques simplifiées pour le sujet ambulatoire Ed Gordon, W. Duncan, R.D. Falb et J. Joseph SPEIDEL (p 131-137), NEW YORK Acad. Press 1972 compte-rendu). La Betamethasone s'est révélée être active chez le rat, avec des solutions de l'ordre de 005 mg/ml. La base physiologique de cette action n'a pas été déterminée et aucun rapport à ce sujet n'a été publié (cf histologie de l'utérus de rat sous l'influence de 50 mg/ml de quinacrine + 0, 05 mg /ml Betamethasone Figure 1).
Ce groupe inclue 80 sujets. Lorque le comprimé de 250 mg est inséré, 4 mg de Dexamethatone sont injectés par voie intramusculaire. La méthode est réputée avec un second comprimé. […] Les sujets ont achevé 950 mois de suivi.
L'insertion est effectuée après que les comprimé aient été insérés. Ce groupe inclût 60 sujets. […] Ce groupe avait 850 mois de suivi.
La bétaméthasone et la Dexamethasone sont des stéroïdes ayant une activité puissante antiphlogistique, anti-inflammatoire et anti-oedemateuse au niveau cérébral et sont des adjuvants importants pour réduire les effets secondaires indésirables de la quinacrine lorsque cette substance est employée pour provoquer l'occlusion la région intra-murale des trompes humaines afin de réaliser une stérilisation pharmacologique. En outre, un mécanisme d'action qui n'est pas clair, semble renforcer l'action d'occlusion de la quinacrine à ce niveau. Le nombre total de sujets a été de 295 et a représenté 3850 mois/femmes d'observation. Seulement une grossesse a été détectée. […]

For data set [2], the system named is utérus de rat. The experiment in a line: Potentiation of the occlusive effect of quinacrine in the rat uterus. In kind it is in vivo. Conditions: solutions of the order of 005 mg/ml (Figure 1: 50 mg/ml quinacrine + 0, 05 mg /ml). On the procedure:
as §3, with “La base physiologique de cette action n'a pas été déterminée et aucun rapport à ce sujet n'a été publié (cf histologie de l'utérus de rat sous l'influence de 50 mg/ml de quinacrine + 0, 05 mg /ml Betamethasone Figure 1).” left out

The test system of data set [3] is femmes. The experiment in a line: Clinical follow-up of side effects (fever, headache) after intrauterine insertion of quinacrine tablets, alone or with an anti-inflammatory adjuvant. In kind it is in vivo. On the procedure: as §1
as §2, with “anti-prostagrandines. […]” for “anti-prostagrandines.”
• 1 - Diclofenac sel de sodium - Cet important agent anti-inflammatoire et inhibiteur de synthèse de prostaglandine a été appliqué en une dose unique intramusculaire de 75 mg, lorsque le comprimé de quinacrine à 180 mg a été inséré. Deux insertions par sujet ont été effectuées, séparées par un cycle menstruel - 78 sujets ont été traités - 702 mois de suivi. […] Ce procédé a été utilisé à nouveau avec le second comprimé séparé par un cycle menstruel. […] Ce groupe incluait 85 sujets. Les sujets ont achevé 1190 mois de suivi. […] Cet agent antipyrétique anti-inflammatoire a été appliqué en une dose unique intramusculaire de 2 g lorsque le pellet de quinacrine à 180 mg (temps de dissolution 10 minutes) a été inséré. Deux insertions, séparées par un cycle mentruel ont été effectuées - 76 sujets ont été traités, 1064 mois de suivi. […] D'autres agents anti-inflammatoires , antiprostaglandine non stéroidiens comme le Piroxicam, Indomethacine, Ibuprogene, Naproxen ou d'autres peuvent être utilisés. La recherche avec quelques uns de ces agents est en développement. De même, la recherche avec les inhibiteurs de synthèse de prostaglandines appliqués par voie intrautérine ou intramusculaire une seule fois est en développement.

Data set [4] concerns sujets. Particulars: cited from earlier work.
The mark [5] stands for this setting: 50 mg tablets by the 'intra-urétine' route simultaneously with quinacrine tablets (180 mg, dissolution time 10 min), two insertions, 85 subjects, first seven days.
[6] abbreviates: single 75 mg intramuscular dose at each of two insertions of 180 mg quinacrine tablet, 78 subjects, first week.
Setting [7] is: share of subjects after the first insertion of quinacrine (250 mg).
The mark [8] stands for this setting: share of subjects after the third insertion of quinacrine (250 mg).

Like-named read-outs stand apart in the source and are kept apart here.

On to `Cc1c(N(C)CS(=O)(=O)O)c(=O)n(-c2ccccc2)n1C` [Dipyrone, metamizol sel de sodium], for which the grossesse entry in data set [1] (single 2 g intramuscular dose at each of two insertions of 180 mg quinacrine pellet (dissolution time 10 min), 76 subjects, 1064 months of follow-up) is recorded as “aucune grossesse n'a été détectée”.

For the molecule `C[C@H]1C[C@H]2[C@@H]3CCC4=CC(=O)C=C[C@]4(C)[C@@]3(F)[C@@H](O)C[C@]2(C)[C@@]1(O)C(=O)CO` [Betaméthasone], the “potentialisation des effets occlusifs de la quinacrine” value in data set [2] is listed as “active”. Also, the grossesse result is reported as “Seulement une grossesse normotopique a été détectée” in data set [1] (4 mg intramuscular at each of two insertions of 250 mg quinacrine tablet, 90 subjects, 1220 months of follow-up, pregnancy in sixth month) and “Aucune grossesse n'a été signalée” in data set [1] (4 mg intrauterine (solution in 1 ml) simultaneously with quinacrine tablet, 65 subjects, 830 months of follow-up).

Consider `O=C(O)Cc1ccccc1Nc1c(Cl)cccc1Cl` [Diclofenac sel de sodium], for which, in data set [3] (setting [5]), the fièvre result is given as “ni fièvre” and the “maux de tête” value is reported as “ni maux de tête”. For the same molecule, in data set [3] (setting [6]), the fièvre entry is “ni fièvre” and the “mal de tête” value is on record as “ni mal de tête”. Further, the grossesse entry in data set [1] (50 mg tablets by the 'intra-urétine' route simultaneously with quinacrine tablets (180 mg, dissolution time 10 min), 85 subjects, 1190 months of follow-up) was “Aucune grossesse n'a été détectée”. In data set [1] (single 75 mg intramuscular dose at each of two insertions of 180 mg quinacrine tablet, 78 subjects, 702 months of follow-up), the grossesse result is reported as “aucune grossesse n'a été détectée”.

On to `CCN(CC)CCCC(C)Nc1c2ccc(Cl)cc2nc2ccc(OC)cc12` (stereo not shown) [quinacrine], for which the figures for the fièvre in data set [4] (setting [7]) and in data set [4] (setting [8]) were 10% and 2%, respectively. Also, the “maux de tête” value in data set [4] (setting [7]) is 9%; in data set [4] (setting [8]), 10,2%. For the same molecule, the taux de grossesse in data set [1] (two insertions of 250 mg tablets, 209 subjects, 2544 months, end of the year of follow-up) is 3,0 pour 100 femmes et par an; in data set [1] (two intrauterine insertions of 180 mg tablets, 190 subjects, end of first year of follow-up), 3 pour 100 femmes, et par an.
